Results reported in US9555077B2 (UNIVERSITY OF MIYAZAKI, priority 2011, dated 2017).

Tests used:
[1] = system: rats with the normal body temperature; assay: Hypothermic effect of desacyl ghrelin in rats with normal body temperature (back/tail surface temperature by thermography); assay type: in vivo, rat; conditions: male Wistar rats
Protocol: Male Wistar rats (9 to 10 weeks old) were used as experimental animals.
The administration to the animals was performed by a single dose of intraperitoneal or intracerebroventricular injection. The dose was 3 nmol/rat for intraperitoneal administration and 0.5 nmol/rat for intracerebroventricular administration, regardless of the weight of the animals. The weight of the rats varied from 350.2 to 375.8 g.
The back or tail surface temperature of the animals was measured for 1 hour at intervals of 1 minute by thermography using FLIR SC620 (software name: FLIR Rsearch IR) made by FLIR Systems Inc. The body temperature values measured by thermography are shown as increase and decrease from the zero reference point obtained by measurement of the body temperature for 10 minutes prior to the intraperitoneal injection.
The laboratory was maintained at room temperature and the rats were carried thereinto. […] As another control, 200 μl/rat of physiological saline was intraperitoneally injected to the rats.
As a control, 0.5 nmol/rat of the rat-derived ghrelin was intracerebroventricularly administered the rats. As another control, 200 μl/rat of physiological saline was intracerebroventricularly administered to the rats.
The back and tail surface temperatures were measured by thermography in this Example.

rats with hyperthermia = assay: Suppressive effect of desacyl ghrelin against body temperature increase in rats with hyperthermia (rectal temperature, survival); assay type: in vivo, rat
Protocol: The rectal temperature was measured with a small animal body temperature controller ATC-101B made by Unique Medical Co., Ltd.
The life or death of each animal was determined in a comprehensive manner based on changes in the heart rate, respiratory rate, and body temperature, the amount of activity, the response to a physical stimulation, etc.
This experiment was performed in the same manner as in Example 1 unless otherwise stated.
While maintaining the air temperature in the laboratory at 33 to 35° C., the humidity was increased from 30% (at the beginning of the experiment) to 75% (at the end of the experiment), and thus the laboratory conditions were gradually changed to high temperature and high humidity conditions. The rats were then carried into the laboratory. The rats were housed in a plastic cage in groups of three each. […] As a control, 200 μl/rat of physiological saline was intraperitoneally injected to the rats.
At the elapsed time of 110 minutes (80 minutes after the intraperitoneal injection), the rats were transferred from the laboratory to room temperature.
At the elapsed time of 130 minutes (100 minutes after the intraperitoneal injection), the life or death of each rat was determined by visual observation and palpation.
The body temperature was measured at the rectum in this Example.

[2] = system: secretion of growth hormone (GH) from the pituitary gland; conditions: Broglio et al. 2004; cited from earlier work

Substance: desacyl ghrelin
- hypothermic effect in back surface temperature compared with ghrelin-administered group ([1]; 0.5 nmol/rat intracerebroventricular, 10 to 30 minutes after injection (FIG. 3)): higher hypothermic effect
- heat dissipation effect compared with ghrelin ([1]; 3 nmol/rat intraperitoneal, tail surface temperature (FIG. 2)): more excellent than that of ghrelin
- tail surface temperature ([1]; 3 nmol/rat intraperitoneal, thermography (FIG. 2)): increased
- back surface temperature, lower than that of the physiological-saline administered group ([1]; room temperature, 3 nmol/rat intraperitoneal, 5 to 60 minutes after injection, thermography (FIG. 1)): 0.3 to 0.8 °C
- survival (life or death of each rat) (rats with hyperthermia; elapsed time 130 minutes (100 minutes after 10 nmol/rat i.p.), three rats per group, two of three control rats died): all the three rats in the desacyl ghrelin-administered group survived
- Body temperature of rats (rats with hyperthermia; rectal, elapsed time 0 minutes at 33 to 35° C. (before the injection)): 36.1 ± 0.1 °C
- body temperature, lower than that of the physiological saline-administered group (rats with hyperthermia; rectal, elapsed time 50 to 110 minutes (20 to 80 minutes after 10 nmol/rat i.p.), p<0.05 or 0.01): 0.3 to 1.2 °C
- Body temperature of rats (rats with hyperthermia; rectal, elapsed time 10 minutes (before the injection)): 37.0 ± 0.1 °C
- Body temperature of rats (rats with hyperthermia; rectal, elapsed time 20 minutes (before the injection)): 38.2 ± 0.2 °C
- Body temperature of rats (rats with hyperthermia; rectal, elapsed time 30 minutes (time of intraperitoneal injection, 10 nmol/rat)): 38.8 ± 0.2 °C
- Body temperature of rats (rats with hyperthermia; rectal, elapsed time 40 minutes (10 minutes after 10 nmol/rat i.p.)): 39.2 ± 0.2 °C
- Body temperature of rats (rats with hyperthermia; rectal, elapsed time 50 minutes (20 minutes after 10 nmol/rat i.p.)): 39.7 ± 0.0 °C
- Body temperature of rats (rats with hyperthermia; rectal, elapsed time 60 minutes (30 minutes after 10 nmol/rat i.p.)): 39.9 ± 0.1 °C
- Body temperature of rats (rats with hyperthermia; rectal, elapsed time 70 minutes (40 minutes after 10 nmol/rat i.p.)): 40.0 ± 0.3 °C
- Body temperature of rats (rats with hyperthermia; rectal, elapsed time 80 minutes (50 minutes after 10 nmol/rat i.p.)): 40.2 ± 0.2 °C
- Body temperature of rats (rats with hyperthermia; rectal, elapsed time 90 minutes (60 minutes after 10 nmol/rat i.p.)): 40.0 ± 0.2 °C
- Body temperature of rats (rats with hyperthermia; rectal, elapsed time 100 minutes (70 minutes after 10 nmol/rat i.p.)): 40.1 ± 0.2 °C
- Body temperature of rats (rats with hyperthermia; rectal, elapsed time 110 minutes (80 minutes after 10 nmol/rat i.p.)): 40.3 ± 0.1 °C
- activity to increase the secretion of growth hormone (GH) from the pituitary gland [2]: almost no activity
